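Compound exposure: 48 hours, 5 concentrations, 96-well plates. At the GI50, growth is halved. TGI: total growth inhibition.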
Tests used:
Test in all cases: NCI tumour cell line growth inhibition, 48 h
HOP-92 NSCLC = system: HOP-92 NSCLC
HCT-116 colon = system: HCT-116 colon
HOP-62 NSCLC = system: HOP-62 NSCLC
NCI/ADR-RES ovarian = system: NCI/ADR-RES ovarian
MDA-MB-435 = system: MDA-MB-435
U251 CNS = system: U251 CNS
OVCAR-5 ovarian = system: OVCAR-5 ovarian
EKVX NSCLC = system: EKVX NSCLC
K-562 leukemia = system: K-562 leukemia
HS 578T breast = system: HS 578T breast

Row | SMILES | GI50 (HOP-92 NSCLC) | TGI (HOP-92 NSCLC) | GI50 (HCT-116 colon) | TGI (HCT-116 colon) | GI50 (HOP-62 NSCLC) | TGI (HOP-62 NSCLC) | GI50 (NCI/ADR-RES ovarian) | TGI (NCI/ADR-RES ovarian) | GI50 (MDA-MB-435) | TGI (MDA-MB-435) | GI50 (U251 CNS) | TGI (U251 CNS) | GI50 (OVCAR-5 ovarian) | TGI (OVCAR-5 ovarian) | GI50 (EKVX NSCLC) | TGI (EKVX NSCLC) | GI50 (K-562 leukemia) | TGI (K-562 leukemia) | GI50 (HS 578T breast) | TGI (HS 578T breast)
1 | CCN1C(=O)N(CC)C2C1NN=c1s/c(=C3\C(=O)N(C(C)C)c4ccccc43)c(=O)n12 (stereo not drawn) | 342 nM | 6.53 µM | 377 nM | > 100 µM | 0.441 µM | 42.7 µM | 300 nM | 3.14 µM | 192 nM | 487 nM | 378 nM | > 57.7 µM | 0.639 µM | > 100 µM | 606 nM | > 100 µM | 329 nM | > 100 µM | 336 nM | 40.3 µM
2 | c1ccc2[nH]c(-c3ccc(N4CCN(c5ccc(-c6nc7ccccc7[nH]6)cc5)CC4)cc3)nc2c1 | > 100000 nM | > 100 µM | 5110 nM | > 100 µM | 11.4 µM | 75.7 µM | > 100000 nM | > 100 µM | > 100000 nM | > 100000 nM | 41300 nM | > 100 µM | 52 µM | > 100 µM | 25700 nM | > 100 µM | 38400 nM | > 100 µM | > 100000 nM | > 100 µM
3 | CC1=C(C(=O)OCc2ccccc2)C(c2ccc3c(c2)OCO3)n2c(nc3ccccc32)N1 (stereo not drawn) | > 100000 nM | > 100 µM | 420 nM | > 100 µM | 8.01 µM | > 100 µM | 311 nM | > 100 µM | 84.2 nM | 351 nM | 464 nM | > 100 µM | > 100 µM | > 100 µM | 692 nM | > 100 µM | 276 nM | > 100 µM | 299 nM | > 48.8 µM
4 | CCc1c(C)[nH]c(/C=C2\N=C(c3ccc[nH]3)C=C2OC)c1C | 135 nM | 0.682 µM | < 46.2 nM |  | 0.25 µM | 4.04 µM | 170 nM | 6.42 µM | 73.3 nM | 1420 nM | 275 nM | 7.33 µM | 0.413 µM | 7.3 µM | 707 nM | 9.93 µM | 805 nM | 8.97 µM | 164 nM | 2.3 µM
5 | N=C(N)c1nn(C2OC(CO)C(O)C2O)c2nc[nH]c(=O)c12 (stereo not drawn) | 1290 nM | 5.93 µM | 347 nM | 1.29 µM | 0.3 µM | 1.14 µM | 321 nM | 1.72 µM | 311 nM | 1160 nM | 2060 nM | > 37.1 µM | 2.85 µM | 14.2 µM | 493 nM | 3.95 µM | 367 nM | 3.63 µM | 376 nM | 2.27 µM
6 | CC12CCC=CC1CCC1C2CCC2(C)C(c3ccc(=O)oc3)CCC12O (stereo not drawn) | 123 nM | 0.639 µM | 39.6 nM | 0.389 µM | 0.0511 µM | 0.21 µM | 47.5 nM | 0.247 µM | 108 nM | 528 nM | 131 nM | 0.419 µM | 0.176 µM | 0.485 µM | 63.6 nM | 0.193 µM | 58.7 nM |  | 29.2 nM | 0.308 µM
7 | Nc1nc(/C=C\c2ccc([N+](=O)[O-])o2)nc(N2CCN(c3ccccc3)CC2)n1 | 6860 nM | 44.3 µM | 2610 nM | 12.2 µM | 17.5 µM | 51.3 µM | 19200 nM | 54.8 µM | 3980 nM | 26000 nM | 6060 nM | 39.7 µM | 31.5 µM | 62.5 µM | 23100 nM | > 100 µM | 4630 nM | 26.7 µM | 25300 nM | 93 µM
8 | CCc1ccc(NC(=O)Nc2c[nH]c3ccccc23)cc1 | 12000 nM | > 53.1 µM | 32900 nM | > 56 µM | 16.7 µM | > 58.8 µM | 14200 nM | > 62.8 µM | 22600 nM | > 49500 nM | 31500 nM | > 51.7 µM | 34 µM | > 57.9 µM | 9200 nM | > 55 µM | 6890 nM | > 100 µM | 10400 nM | > 67.8 µM
9 | COc1cc2nc(Cl)nc(Nc3cccc(C(=O)/C=C/c4ccccc4)c3)c2cc1OC | 2090 nM | 8.52 µM | 1620 nM | 5.16 µM | 3.71 µM | 31.7 µM | 4260 nM | > 100 µM | 3400 nM | 28900 nM | 2970 nM | > 38.1 µM | 8.79 µM | > 100 µM | > 33700 nM | > 100 µM | 1740 nM | > 100 µM | 4190 nM | > 64.1 µM
10 | CC(=O)OC1c2ccccc2CC2(OC(C)=O)c3ccccc3C12 (stereo not drawn) |  | > 100 µM |  | > 100 µM |  | > 100 µM |  | > 100 µM |  | > 100000 nM |  | > 100 µM |  | > 100 µM |  | > 100 µM |  | > 100 µM |  | > 100 µM
11 | C=C(C)[C@@H]1CC[C@]2(C(=O)NCCCN)CC[C@]3(C)[C@H](CC[C@@H]4[C@@]5(C)CC[C@H](O)C(C)(C)[C@@H]5CC[C@]43C)[C@@H]12 | 10800 nM | 35.4 µM | 13900 nM | 62.4 µM | 18.3 µM | 88.4 µM | 24800 nM | 81.2 µM | 28700 nM | > 100000 nM | 17700 nM | 49.4 µM | 14.8 µM | 31.3 µM | 23300 nM | 76.1 µM | 9840 nM | 31.3 µM | 40500 nM | > 100 µM
12 | Fc1ccc(-c2nc3n(c2-c2ccncc2)CCS3)cc1 | > 25000 nM | > 25 µM | > 25000 nM | > 25 µM | > 25 µM | > 25 µM | > 25000 nM | > 25 µM | > 25000 nM | > 25000 nM | > 25000 nM | > 25 µM | > 25 µM | > 25 µM | > 25000 nM | > 25 µM | > 25000 nM | > 25 µM | > 25000 nM | > 25 µM
13 | CCN(CC)CCOc1ccc(C(=C(C)c2ccc(Cl)cc2)c2ccc(OCCN(CC)CC)cc2)cc1 | 536 nM | 2.19 µM | 591 nM | 1.16 µM | 0.995 µM | 2.91 µM | 657 nM | 1.4 µM | 558 nM | 1020 nM | 582 nM | 1.15 µM | 0.664 µM | 1.57 µM | 989 nM | 3.5 µM | 627 nM | 1.74 µM | 710 nM | 1.85 µM

— PubChem BioAssay (NCI)
